Values quoted from earlier work in patent publication US20210346403A1, “USE OF COMPOUNDS THAT TARGET MINERALOCORTICOID RECEPTORS FOR TREATING COVID-19” (priority 2020, published 2021).

Experiments:
progestin receptor = biological target: T1, progestin receptor (Homo sapiens, UniProt P06401); details: fold lower affinity; comparator not stated explicitly (spironolactone or MR implied)
T1 sequence (P06401 1-933): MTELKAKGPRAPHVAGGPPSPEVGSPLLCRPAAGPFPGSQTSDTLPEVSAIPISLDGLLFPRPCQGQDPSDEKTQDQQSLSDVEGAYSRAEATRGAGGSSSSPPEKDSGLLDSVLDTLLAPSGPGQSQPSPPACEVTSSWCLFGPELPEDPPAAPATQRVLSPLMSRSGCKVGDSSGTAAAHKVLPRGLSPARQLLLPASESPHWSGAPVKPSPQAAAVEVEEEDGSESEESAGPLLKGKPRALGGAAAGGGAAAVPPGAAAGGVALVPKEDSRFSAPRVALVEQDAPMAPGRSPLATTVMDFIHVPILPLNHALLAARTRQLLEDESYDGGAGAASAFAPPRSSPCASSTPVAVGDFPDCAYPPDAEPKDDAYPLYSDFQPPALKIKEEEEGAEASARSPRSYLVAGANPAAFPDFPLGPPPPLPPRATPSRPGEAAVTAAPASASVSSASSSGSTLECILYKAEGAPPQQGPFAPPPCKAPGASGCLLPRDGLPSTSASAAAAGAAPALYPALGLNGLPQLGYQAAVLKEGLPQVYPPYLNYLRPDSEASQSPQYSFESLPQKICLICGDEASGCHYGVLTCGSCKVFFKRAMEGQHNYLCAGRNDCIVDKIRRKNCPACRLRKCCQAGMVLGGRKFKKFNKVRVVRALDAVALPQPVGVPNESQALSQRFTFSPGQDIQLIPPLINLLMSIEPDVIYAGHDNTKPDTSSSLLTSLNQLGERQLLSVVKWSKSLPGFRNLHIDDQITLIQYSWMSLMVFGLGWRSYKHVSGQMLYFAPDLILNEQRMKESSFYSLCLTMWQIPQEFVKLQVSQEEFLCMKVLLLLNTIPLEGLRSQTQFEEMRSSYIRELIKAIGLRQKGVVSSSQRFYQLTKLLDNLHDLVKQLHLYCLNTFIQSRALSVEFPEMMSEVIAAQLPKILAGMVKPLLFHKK

[1] = biological target: T2, mineralocorticoid receptor (MR) (Homo sapiens, UniProt P08235); details: versus other steroid receptors, in words
T2 sequence (P08235 1-984): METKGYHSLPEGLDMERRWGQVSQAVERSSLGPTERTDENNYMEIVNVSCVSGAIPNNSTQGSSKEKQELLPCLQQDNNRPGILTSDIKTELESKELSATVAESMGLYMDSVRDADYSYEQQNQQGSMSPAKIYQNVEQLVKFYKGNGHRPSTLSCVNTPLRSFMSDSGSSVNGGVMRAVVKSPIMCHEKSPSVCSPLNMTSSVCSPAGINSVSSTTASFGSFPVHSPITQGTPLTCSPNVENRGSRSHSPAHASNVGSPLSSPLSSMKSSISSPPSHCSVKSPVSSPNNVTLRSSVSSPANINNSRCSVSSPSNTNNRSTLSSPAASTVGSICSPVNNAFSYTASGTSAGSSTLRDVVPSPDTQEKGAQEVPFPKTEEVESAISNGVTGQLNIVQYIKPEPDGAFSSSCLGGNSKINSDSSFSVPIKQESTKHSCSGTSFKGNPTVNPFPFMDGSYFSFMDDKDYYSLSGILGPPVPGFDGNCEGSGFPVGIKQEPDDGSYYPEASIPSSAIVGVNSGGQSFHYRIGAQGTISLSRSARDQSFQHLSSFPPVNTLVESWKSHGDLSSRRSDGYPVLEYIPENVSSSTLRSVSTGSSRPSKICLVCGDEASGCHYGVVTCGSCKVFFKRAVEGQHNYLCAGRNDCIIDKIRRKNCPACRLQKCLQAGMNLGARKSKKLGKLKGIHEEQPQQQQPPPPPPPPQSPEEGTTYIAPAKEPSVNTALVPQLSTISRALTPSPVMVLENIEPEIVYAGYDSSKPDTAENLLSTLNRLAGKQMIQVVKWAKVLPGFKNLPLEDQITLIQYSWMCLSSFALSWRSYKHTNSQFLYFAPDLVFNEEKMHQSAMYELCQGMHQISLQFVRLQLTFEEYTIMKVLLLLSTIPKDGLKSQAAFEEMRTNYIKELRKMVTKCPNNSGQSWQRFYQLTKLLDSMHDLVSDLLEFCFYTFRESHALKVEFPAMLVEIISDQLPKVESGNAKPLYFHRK

[2] = degraded by aminopeptidase A enzymes on red blood cells

COC(=O)[C@@H]1CC2=CC(=O)CC[C@]2(C)[C@@]23O[C@@H]2C[C@@]2(C)[C@@H](CC[C@@]24CCC(=O)O4)[C@H]13 [Eplerenone, eplerenone]
lower affinity for the progestin receptor (progestin receptor): 500 fold

CC(=O)S[C@@H]1CC2=CC(=O)CC[C@]2(C)[C@H]2CC[C@@]3(C)[C@@H](CC[C@@]34CCC(=O)O4)[C@H]12 [Spironolactone, spironolactone]
selectivity for the MR [1]: less selective for the MR

angiotensin-2 (DRVYIHPF; Angiotensin-2; UniProt P01019 25-32, looked up) [AngII]
half-life [2]: 30 s
